Laboratory results: EP0178388A1, “Quinolinecarboxylic acid derivatives” (KYORIN PHARMACEUTICAL CO., LTD., priority 1984, dated 1986)
Converted amounts (≈) assume the structure as drawn. Where a name gives a salt, the structure may show the parent alone. Read-outs that look alike come from different tables or passages of the source.

Experiments:
[1] = tested on: Staphylococcus aureus 209 P; assay: In vitro antibacterial activity, MIC (standard strain); format: cell-based; settings: 10^6 cells/ml, read-out: MIC
[2] = tested on: Alcaligenes faecalis 0114002; assay: as above; format: cell-based; settings: Alcaligenes faecalis 0114002, 10^6 cells/ml
[3] = tested on: Peptostreptococcus anaerobius KYA 27337; assay: as above; format: cell-based; settings: KYA27337, Peptostreptococcus anaerobius KYA 27337, 10^6 cells/ml
[4] = tested on: Yersinia enterocolitica IID 981; assay: as above; format: cell-based; settings: IID981
[5] = tested on: Proteus vulgaris IFO 3167; assay: as above; format: cell-based; settings: IFO3167
[6] = tested on: Enterobacter cloacae IID 977; assay: as above; format: cell-based; settings: IID977, Enterobacter cloacae IID 977, 10^6 cells/ml
P. aeruginosa IFO 12689 = assay: as above; format: cell-based; settings: Pseudomonas aeruginosa
P. mirabilis IID 994 = assay: as above; format: cell-based; settings: Proteus mirabilis, IID994, P. mirabilis IID 994, 10^6 cells/ml
[7] = tested on: Citrobacter freundii IID 976; assay: as above; format: cell-based; settings: IID976
K. pneumoniae KY(GN)6445 = assay: as above; format: cell-based; settings: Klebsiella pneumoniae
[8] = tested on: Serratia marcescens IID 618; assay: as above; format: cell-based; settings: IID618, Serratia marcescens IID 618, 10^6 cells/ml, read-out: MIC
Pst. micros UPI 5464-1 = assay: as above; format: cell-based; settings: Parvimonas micra, UPI54641, Pst. micros UPI 5464-1, 10^6 cells/ml
[9] = tested on: Clostridium difficile I-E; assay: as above; format: cell-based; settings: Clostridioides difficile, 10^6 cells/ml
[10] = tested on: Salmonella enteritidis IID 604; assay: as above; format: cell-based; settings: Salmonella enterica
[11] = tested on: Acinetobacter anitratus IID 876; assay: as above; format: cell-based; settings: Acinetobacter calcoaceticus, IID876
[12] = tested on: Pseudomonas aeruginosa V-1; assay: as above; format: cell-based; settings: V1
[13] = tested on: S. aureus IID 670 (Terajima); assay: as above; format: cell-based; settings: Staphylococcus aureus, IID670, 10^6 cells/ml
[14] = tested on: F. varium KYA (ATCC) 8501; assay: as above; format: cell-based; settings: Fusobacterium varium, F. varium KYA (ATCC) 8501, 10^6 cells/ml
[15] = tested on: B. thetaiotaomicron (0661); assay: as above; format: cell-based; settings: Bacteroides thetaiotaomicron
[16] = tested on: Bacteroides fragilis GM 7000; assay: as above; format: cell-based; settings: GM7000
E. coli ML4707 [17] = assay: In vivo antibacterial activity against systemic infection in mice;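 also: ED50 in mg/kg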; settings: Escherichia coli, ML4707, po, 1 h, E. coli ML4707, mice (ICR-S), intraperitoneal infection, oral at 1 hour after infection
Description: (§1) Experiment 2 In vivo antibacterial activity against systemic infection in mice (ICR-S)
(§2) The infections were produced by intraperitoneal infection of a suspension of the bacterial culture corresponding to the germ studied. The product was administered orally at 1 hour after the infection. The 50% effective dose (ED50) which protects 50% of the animals from death caused by the infection was determined from the relation between dosage and survival rate.

B. fragilis 25285 = assay: In vitro antibacterial activity, MIC (standard strain); format: cell-based; settings: Bacteroides fragilis, 25285
[18] = tested on: Veillonella parvula KYA 10790; assay: as above; format: cell-based; settings: KYA10790, Veillonella parvula KYA 10790, 10^6 cells/ml
[19] = tested on: Escherichia coli NIHJ JC-2; assay: as above; format: cell-based; settings: NIHJJC2, Escherichia coli NIHJ JC-2, 10^6 cells/ml
E. coli ATCC 10536 = assay: as above; format: cell-based; settings: Escherichia coli, ATCC10536; E. coli ATCC 10536, 10^6 cells/ml, standard strain; read-out: MIC
S. epidermidis IID 866 = assay: as above; format: cell-based; settings: Staphylococcus epidermidis, IID866, S. epidermidis IID 866, 10^6 cells/ml
E. coli ML4707 [20] = assay: MIC against the infecting strain (Table 2); format: cell-based; settings: Escherichia coli; E. coli ML4707 (Table 2, parts 1 and 2)
Description: (§3) The in vitro antibacterial activity has been investigated, the minimun inhibitory concentration (MIC) was determined in accordance with the method recommended by Japan Society of Chemotherapy.

[21] = tested on: C. perfringens KYA (ATCC) 13123; assay: microbe, parasite or virus in culture; format: cell-based; settings: Clostridium perfringens
P. morganii IID 602 = assay: In vitro antibacterial activity, MIC (standard strain); format: cell-based; settings: Morganella morganii, IID602
[22] = tested on: Bacillus subtilis PCI 219; assay: as above; format: cell-based; settings: PCI219
B. distasonis 8503 = assay: as above; format: cell-based; settings: Parabacteroides distasonis, B. distasonis 8503, 10^6 cells/ml
Shigella sonnei IID 969 = assay: as above; format: cell-based; settings: IID969, Shigella sonnei IID 969, 10^6 cells/ml
Description: as §3

B. fragilis 0558 = assay: as above; format: cell-based; settings: Bacteroides fragilis, 0558
C. ramosum = assay: as above; format: cell-based; settings: Thomasclavelia ramosa
[23] = tested on: Klebsiella pneumoniae I-220S; assay: as above; format: cell-based
P. aeruginosa IID 1210 = assay: In vivo antibacterial activity against systemic infection in mice; design: species or system mice (ICR-S); settings: Pseudomonas aeruginosa, IID1210, po, 1 h;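 also: ED50 in mg/kg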
Description: as §1, §2

S. aureus Smith = assay: as above; design: species or system mice (ICR-S); settings: Staphylococcus aureus, po, 1 h;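 also: ED50 in mg/kg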
Description: as §1, §2

S. pneumoniae S-4288 = assay: as above; design: species or system mice (ICR-S); settings: Streptococcus pneumoniae, S4288, po, 1 h
Description: as §1, §2

S. faecalis IID 682 = assay: In vitro antibacterial activity, MIC (standard strain); format: cell-based; settings: Enterococcus faecalis, IID682, S. faecalis IID 682, 10^6 cells/ml
S. pneumoniae IID 552 = assay: as above; format: cell-based; settings: Streptococcus pneumoniae, IID552, S. pneumoniae IID 552, 10^6 cells/ml
[24] = tested on: Streptococcus pyogenes S-8; assay: as above; format: cell-based; settings: S8, Streptococcus pyogenes S-8, 10^6 cells/ml
S. pyogenes IID 692 = assay: as above; format: cell-based; settings: Streptococcus pyogenes, IID692, S. pyogenes IID 692, 10^6 cells/ml
[25] = Yersinia enterocolitica IID 981, 10^6 cells/ml, standard strain, read-out: MIC
[26] = Proteus vulgaris IFO 3167, 10^6 cells/ml, standard strain, read-out: MIC
[27] = Citrobacter freundii IID 976, 10^6 cells/ml, standard strain, read-out: MIC
[28] = K. pneumoniae KY(GN)6445, 10^6 cells/ml, standard strain, read-out: MIC
[29] = Salmonella enteritidis IID 604, 10^6 cells/ml, standard strain, read-out: MIC
[30] = Acinetobacter anitratus IID 876, 10^6 cells/ml, standard strain, read-out: MIC
[31] = Pseudomonas aeruginosa V-1, 10^6 cells/ml, standard strain, read-out: MIC
[32] = P. morganii IID 602, 10^6 cells/ml, standard strain, read-out: MIC
[33] = Bacillus subtilis PCI 219, 10^6 cells/ml, standard strain, read-out: MIC

SMILES | MIC [1] [mg/L] | MIC [2] [mg/L] | MIC [4, 25] [mg/L] | MIC [5, 26] [mg/L] | MIC [6] [mg/L] | MIC (P. mirabilis IID 994) [mg/L] | MIC [7, 27] [mg/L] | MIC (K. pneumoniae KY(GN)6445; [28]) [mg/L] | MIC [8] [mg/L] | MIC [10, 29] [mg/L] | MIC [11, 30] [mg/L] | MIC [12, 31] [mg/L] | MIC [13] [mg/L] | MIC (B. fragilis 25285) [mg/L] | MIC [19] [mg/L] | MIC (E. coli ATCC 10536) [mg/L] | MIC (S. epidermidis IID 866) [mg/L] | MIC (P. morganii IID 602; [32]) [mg/L] | MIC [22, 33] [mg/L] | MIC (Shigella sonnei IID 969) [mg/L] | further results
CC1CN(c2c(F)cc3c(=O)c(C(=O)O)cn(C4CC4)c3c2F)CC(C)N1 (stereo not drawn) [Example 4, 1-Cyclopropyl-6,8-difluoro-1,4-dihydro-7-(3,5-dimethyl-l-piperazinyl)-4-oxoquinoline-3-carboxylic acid] | 0.2 (≈ 0.53 µM) | 0.2 (≈ 0.53 µM) | 0.1 (≈ 0.265 µM) | 0.025 (≈ 0.0662 µM) | 0.05 (≈ 0.132 µM) | 0.1 (≈ 0.265 µM) | 0.025 (≈ 0.0662 µM) | 0.025 (≈ 0.0662 µM) | 0.1 (≈ 0.265 µM) | 0.05 (≈ 0.132 µM) | 0.006 (≈ 0.0159 µM) | 0.39 (≈ 1.03 µM) | 0.2 (≈ 0.53 µM) | 1.56 (≈ 4.13 µM) | ≤ 0.025 | ≤ 0.006 | 0.39 (≈ 1.03 µM) | 0.1 (≈ 0.265 µM) | 0.05 (≈ 0.132 µM) | 0.0125 (≈ 0.0331 µM) | MIC [3]: 3.13 mg/L (≈ 8.29 µM); MIC (P. aeruginosa IFO 12689; IFO12689): 1.56 mg/L (≈ 4.13 µM); MIC (Pst. micros UPI 5464-1): 0.39 mg/L (≈ 1.03 µM); MIC [9]: 12.5 mg/L (≈ 33.1 µM); MIC [14]: 12.5 mg/L (≈ 33.1 µM); MIC ([15]; B. thetaiotaomicron (0661), 10^6 cells/ml, standard strain, read-out: MIC): 6.25 mg/L (≈ 16.6 µM); MIC ([16]; Bacteroides fragilis GM 7000, 10^6 cells/ml, standard strain, read-out: MIC): 3.13 mg/L (≈ 8.29 µM); ED50 (E. coli ML4707 [17]; challenge dose 6.0 x 10^6 cfu/mouse (part 1), read-out: ED50): 0.13 mg/kg; MIC [18]: 0.39 mg/L (≈ 1.03 µM); MIC (E. coli ML4707 [20]): 0.0125 mg/L (≈ 0.0331 µM); MIC [21]: 1.56 mg/L (≈ 4.13 µM); MIC (B. distasonis 8503): 3.13 mg/L (≈ 8.29 µM); MIC (B. fragilis 0558): 1.56 mg/L (≈ 4.13 µM)
O=C(O)c1cn(C2CC2)c2cc(N3CCNCC3)c(F)cc2c1=O [CFLX, 1-Cyclopropyl-6-fluoro-1,4-dihydro-4-oxo-7-(1-piperazinyl)-quinoline-3-carboxylic acid, reference compound] | – | – | – | – | – | – | – | – | – | – | – | – | – | 3.13 (≈ 9.45 µM) | ≤ 0.006 | – | – | – | – | ≤ 0.006 | MIC ([4]; Yersinia enterocolitica): 0.05 mg/L (≈ 0.151 µM); MIC ([5]; Proteus vulgaris): ≤ 0.006 mg/L; MIC ([7]; Citrobacter freundii): ≤ 0.006 mg/L; MIC (C. ramosum): 3.13 mg/L (≈ 9.45 µM); MIC (K. pneumoniae KY(GN)6445): 0.025 mg/L (≈ 0.0754 µM); MIC [10]: 0.025 mg/L (≈ 0.0754 µM); MIC [11]: 0.025 mg/L (≈ 0.0754 µM); MIC ([12]; Pseudomonas aeruginosa): 0.2 mg/L (≈ 0.604 µM); MIC [15]: 3.13 mg/L (≈ 9.45 µM); MIC ([16]; Bacteroides fragilis): 3.13 mg/L (≈ 9.45 µM); ED50 (E. coli ML4707 [17]; challenge dose 6.0 x 10^6 cfu/mouse (part 1)): 0.67 mg/kg; ED50 (E. coli ML4707 [17]; challenge dose 8.3 x 10^6 cfu/mouse (part 2)): 0.75 mg/kg; MIC ([23]; Klebsiella pneumoniae): 0.05 mg/L (≈ 0.151 µM); MIC (P. morganii IID 602): 0.05 mg/L (≈ 0.151 µM); ED50 (P. aeruginosa IID 1210): 8 mg/kg; ED50 (S. aureus Smith): 12.8 mg/kg; ED50 (S. pneumoniae S-4288): > 100 mg/kg; MIC ([22]; Bacillus subtilis): 0.05 mg/L (≈ 0.151 µM); MIC (B. fragilis 0558): 3.13 mg/L (≈ 9.45 µM)
CC1CN(c2c(F)cc3c(=O)c(C(=O)O)cn(C4CC4)c3c2Cl)CC(C)N1 (centres unmarked) [Example 6, 8-Chloro-1-cyclopropyl-6-fluoro-1,4-dihydro-7-(3,5-dimethyl-1-piperazinyl)-4-oxoquinoline-3-carboxylic acid and its hydrochloride] | 0.2 | 0.78 | 0.2 | 0.05 | 0.2 | 0.1 | 0.1 | 0.05 | 0.2 | 0.1 | 0.1 | 1.56 | 0.2 | – | 0.05 | 0.025 | 0.2 | 0.2 | 0.05 | 0.05 | MIC (S. faecalis IID 682): 0.78 mg/L; MIC (S. pneumoniae IID 552): 0.78 mg/L; MIC (P. aeruginosa IFO 12689; IFO12689, P. aeruginosa IFO 12689, 10^6 cells/ml, standard strain, read-out: MIC): 3.13 mg/L; MIC ([23]; I220S, Klebsiella pneumoniae I-220S, 10^6 cells/ml, standard strain, read-out: MIC): 0.2 mg/L; MIC [24]: 0.39 mg/L; MIC (S. pyogenes IID 692): 0.78 mg/L
